Laboratory results: patent US5672594A, “L-erythrosyl nucleosides” (Genencor International, Inc., priority 1994, dated 1997)
Converted amounts (≈) assume the structure as drawn. Where two headings read alike, the source gives them in different places.

Key:
SKLU (lung) = test: In vitro growth inhibition of SKLU tumor cells (radiometric BACTEC); assay type: cell-based; details: Homo sapiens, concentration required to kill 50% of the untreated cancer cells
From the text: (§1) CELL LINES: Eight different established human cell lines CALU (lung), COLO320 (colon), H578St (breast), HT-29 (colon), MCF-7 (breast), OM-1 (colon), SKLU (lung) and SKMES (lung), and two control cell lines (bone marrow andr fibroblasts) were utilized.
(§2) All cell lines were obtained from the Tumor Cloning Laboratory, Institute for Drug Development, Cancer Therapy and Research Center, San Antonio, Tex. All cell lines grew as monolayers in the appropriate culture medium supplemented with heat-inactivated calf serum. All reagents were obtained from Grand Island Biological Co., Grand Island, N.Y. […]
(§3) RADIOMETRIC MEASUREMENT OF GROWTH INHIBITION: Growth inhibition was assessed with the BACTEC System 460 (Johnston Laboratories, Towson, Md.) after addition of the antitumor agent in the respective growth medium containing ^14 C-glucose at a final concentration of 2 μCi/ml. […]
(§4) Two mls of the tumor cell suspension containing radioactive glucose were seeded into sterile, disposable 15 ml vials by injection through self-sealing rubber-aluminum caps. […] Chemotherapy sensitivity was calculated by comparing the growth index values of drug-treated vials to that observed in control vials. […]
(§5) The data presented in Table I are compared to results achieved with 5-FU as the control. […] In this regard, a therapeutic ratio for a given compound is typically determined by the following calculation. […]

OM-1 (colon) = test: In vitro growth inhibition of OM-1 tumor cells (radiometric BACTEC); assay type: cell-based; details: Homo sapiens, concentration required to kill 50% of the untreated cancer cells
From the text: as §1, §2, §3, §4, §5

SKMES (lung) = test: In vitro growth inhibition of SKMES tumor cells (radiometric BACTEC); assay type: cell-based, human; details: for IC50: Homo sapiens
From the text: as §1
(§6) All cell lines were obtained from the Tumor Cloning Laboratory, Institute for Drug Development, Cancer Therapy and Research Center, San Antonio, Tex. All cell lines grew as monolayers in the appropriate culture medium supplemented with heat-inactivated calf serum. All reagents were obtained from Grand Island Biological Co., Grand Island, N.Y.
(§7) The iv formulations of the compounds of the present invention were prepared with sterile buffered saline and stored at -70° C. until required for testing.
(§8) Following trypsinization, tumor cells were suspended in tissue culture medium and exposed to the antitumor agents continuously at three different concentrations: 10, 1 and 0.1 μg/ml.
(§9) RADIOMETRIC MEASUREMENT OF GROWTH INHIBITION: Growth inhibition was assessed with the BACTEC System 460 (Johnston Laboratories, Towson, Md.) after addition of the antitumor agent in the respective growth medium containing ^14 C-glucose at a final concentration of 2 μCi/ml.
(§10) Two mls of the tumor cell suspension containing radioactive glucose were seeded into sterile, disposable 15 ml vials by injection through self-sealing rubber-aluminum caps. […] The seeded vials were then incubated at 37° C. Measurement of the release of ^14 CO2 resulting from the metabolism of ^14 C-glucose were performed on days 6, 9, 12, and 15 in the BACTEC instrument. This instrument flushes the ^14 CO2 containing air out of the vials into an ionization chamber that converts dpm to growth index values. […] Each data point represents triplicate values.
(§11) All compounds were dosed on an equimilimolar basis. […] [formula]

HT29 (colon) = test: In vitro growth inhibition of HT29 tumor cells (radiometric BACTEC); assay type: cell-based; details: Homo sapiens, HT-29, concentration required to kill 50% of the untreated cancer cells
From the text: as §1, §2, §3, §4, §5

COLO320 (colon) = test: In vitro growth inhibition of COLO320 tumor cells (radiometric BACTEC); assay type: cell-based; details: Homo sapiens, COLO 320, concentration required to kill 50% of the untreated cancer cells
From the text: as §1, §2, §3, §4, §5

HS578T (breast) = test: In vitro growth inhibition of HS578T tumor cells (radiometric BACTEC); assay type: cell-based; details: Homo sapiens, Hs-578T, concentration required to kill 50% of the untreated cancer cells
From the text: as §1, §2, §3, §4, §5

CALU (lung) = test: In vitro growth inhibition of CALU tumor cells (radiometric BACTEC); assay type: cell-based, human; details: for IC50: Homo sapiens
From the text: as §1, §6, §7, §8, §9, §10, §11

[1] = In vitro growth inhibition/survival, bone marrow control cells (radiometric BACTEC); assay type: cell-based; details: human, continuous exposure (10, 1 and 0.1 μg/ml tested; concentration of this value not given)
From the text: as §1, §6, §7, §8, §9
Two mls of the tumor cell suspension containing radioactive glucose were seeded into sterile, disposable 15 ml vials by injection through self-sealing rubber-aluminum caps. […]

[2] = known drug, background; cited from earlier work
MCF-7 (breast) = test: In vitro growth inhibition of MCF-7 tumor cells (radiometric BACTEC); assay type: cell-based, human; details: for IC50: Homo sapiens, MCF7
From the text: as §1, §6, §7, §8, §9, §10, §11

Compound	IC50 (SKLU (lung))	IC50 (OM-1 (colon))	IC50 (SKMES (lung))	IC50 (HT29 (colon))	IC50 (COLO320 (colon))	IC50 (HS578T (breast))	IC50 (CALU (lung))	viability [1]	side effects [2]	IC50 (MCF-7 (breast))	IC50 (SKMES (lung); SKMES, concentration required to kill 50% of the untreated cancer cells, read-out: IC 50)	% SURVIVAL TUMOR (SKMES (lung); SKMES, continuous exposure, concentration of this value not given)	% SURVIVAL TUMOR (CALU (lung); CALU, continuous exposure (10, 1 and 0.1 μg/ml tested; concentration of this value not given))	IC50 (CALU (lung); CALU, concentration required to kill 50% of the untreated cancer cells, read-out: IC 50)	IC50 (MCF-7 (breast); MCF-7, concentration required to kill 50% of the untreated cancer cells, read-out: IC 50)	% SURVIVAL TUMOR (MCF-7 (breast); MCF-7, continuous exposure, concentration of this value not given)
O=c1[nH]cc(F)c(=O)[nH]1 [5-FU, 5-fluorouracil]	1.05 µg/mL (≈ 8.06 µM)	1.47 µg/mL (≈ 11.3 µM)	< 0.6 µg/mL	0.613 µg/mL (≈ 4.71 µM)	< 0.6 µg/mL	> 0.6 µg/mL	< 0.6 µg/mL	38.6%	nausea, vomiting, diarrhea, leukopenia, thrombocytopenia, alopecia	< 0.6 µg/mL						
O=c1[nH]c(=O)n([C@@H]2OC[C@H](O)[C@@H]2O)cc1F [α-L-erythrofuranosyl-5-fluorouracil]								104%			> 10 µg/mL	67.4%	85.3%	> 10 µg/mL	> 10 µg/mL	52.7%
